Measurements: patent publication US12162863B2, “Modulators of stimulator of interferon genes (STING)” (RYVU THERAPEUTICS S.A., priority 2018, dated 2024)

Key:
[1] = tested on: interferon regulatory factor (IRF) pathway in THP-1 dual cells; test: THP-1 Dual Reporter Assay, IRF pathway (luciferase reporter); type: cell-based; conditions: Homo sapiens, THP1-Dual, 18 h of stimulation, luminescence
Description: (§1) THP-1 Dual Reporter Assay
(§2) Compounds of the present invention were tested for their activity using THP-1 dual cells (Invivogen, cat no. thpd-nfis) allowing for simultaneous study of NF-κB pathway and the interferon regulatory factor (IRF) pathway. THP-1 dual cells contain luciferase reporter gene under the control of an ISG54 (interferon-stimulated gene) minimal promoter in conjunction with five interferon-stimulated response elements and a secreted embryonic alkaline phosphatase reporter gene under the control an IFN (interferon)-β minimal promoter fused to five copies of the NF-κB consensus transcriptional response element with three copies of the c-Rel binding site. Following 18 h of stimulation with STING agonist, medium was collected and transferred onto fresh cell culture plate. To verify activity of the IRF pathway, luminescence activity was measured with standard laboratory plate reader immediately after addition 10 μl of the medium to 50 μl of luminescence reagent (Invivogen, cat. No. rep-qlc2). To verify activity of NF-κB pathway, 20 μl of the medium was mixed with 80 μl of a detection medium (Invivogen, cat. No. rep-qb2) and incubated for 2 hours at 37° C. in a humidified atmosphere containing 5% CO2. Next, absorbance at 630 nm was recorded using standard laboratory plate reader.

human STING = human STING (Homo sapiens, UniProt Q86WV6); test: Fluorescence Thermal Shift assay; type: binding; conditions: 50 μM compound; STING 0.1 mg/ml; 20 minutes preincubation; read-out: [hSTING] FTS, ΔTm [° C.] for 50 μM
Description: Fluorescence Thermal Shift Assay Compounds of the present invention were tested for binding to human STING in Fluorescence Thermal Shift assay. STING was preincubated with the compounds for 20 minutes in 50 mM Hepes, 150 mM NaCl, pH 7.5 in 16 μl volume, following by adding 4 μl of SyproOrange dye dilution (ThermoFisher, cat no. S-6651). Final STING concentration was 0.1 mg/ml. Thermal unfolding was performed in Real-Time PCR QuantStudio 6 Flex System (Applied Biosystems), from 25 to 99° C., with continuous ramp mode and ramp rate 0.033° C./s. The data were analyzed using Protein Thermal Shift Software (ThermoFisher). […] For example, ΔTm [° C.] of FTS assay for following examples are: […]

[2] = tested on: NF-κB pathway in THP-1 dual cells; test: THP-1 Dual Reporter Assay, NF-κB pathway (SEAP reporter); type: cell-based; conditions: Homo sapiens, THP1-Dual, 18 h of stimulation, absorbance at 630 nm, read-out: THP1 Dual EC50 (μM) NFkB
Description: as §1, §2

Sequence of human STING (Q86WV6 whole entry H232R): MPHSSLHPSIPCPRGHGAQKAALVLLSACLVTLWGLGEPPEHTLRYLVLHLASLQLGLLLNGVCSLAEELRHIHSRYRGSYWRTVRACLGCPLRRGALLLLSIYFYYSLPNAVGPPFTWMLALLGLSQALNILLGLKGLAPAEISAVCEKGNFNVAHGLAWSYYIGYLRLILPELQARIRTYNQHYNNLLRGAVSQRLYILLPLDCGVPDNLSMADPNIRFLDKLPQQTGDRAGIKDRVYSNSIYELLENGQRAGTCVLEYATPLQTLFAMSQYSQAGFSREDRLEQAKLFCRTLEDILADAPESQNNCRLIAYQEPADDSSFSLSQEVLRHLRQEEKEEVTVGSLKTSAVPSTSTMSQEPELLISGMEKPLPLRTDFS

| SMILES | EC50 [1] [µM] | ΔTm at 50 µM (human STING) [°C] | EC50 [2] [µM] |
| --- | --- | --- | --- |
| COc1cc(CN(CCCn2cnc3cncnc32)Cc2cn(C)c3ccccc3c2=O)ccn1 [Example 89, 3-({[(2-methoxypyridin-4-yl)methyl][3-(9H-purin-9-yl)propyl]amino}methyl)-1-methyl-1,4-dihydroquinolin-4-one] | ≤ 10 | < 2.5 | ≤ 10 |
| Cc1oc2ccccc2c(=O)c1CN(CCCc1cccnc1)Cc1ccncc1 [Example 41, 2-methyl-3-({[3-(pyridin-3-yl)propyl][(pyridin-4-yl)methyl]amino}methyl)-4H-chromen-4-one] | 10 to 20 | > 2.5 | 10 to 20 |
| COc1cc(CN(CCCn2ccnc2)Cc2c(C)oc3ccccc3c2=O)ccn1 [Example 46, 3-({[3-(1H-imidazol-1-yl)propyl][(2-methoxypyridin-4-yl)methyl]amino}methyl)-2-methyl-4H-chromen-4-one] | ≤ 10 | < 2.5 | ≥ 20 |
| CN1CCN(c2cc3occ(CN(CCCn4ccnc4)Cc4ccncc4)c(=O)c3cc2F)CC1 [Example 49, 6-fluoro-3-({[3-(1H-imidazol-1-yl)propyl][(pyridin-4-yl)methyl]amino}methyl)-7-(4-methylpiperazin-1-yl)-4H-chromen-4-one] | ≤ 10 | > 2.5 | ≤ 10 |
| COc1cc(CN(CCCn2cnc3cncnc32)Cc2c(C)oc3cc(N4CCN(C)CC4)c(F)cc3c2=O)ccn1 [Example 84, 6-fluoro-2-methyl-7-(4-methylpiperazin-1-yl)-3-({[3-(9H-purin-9-yl)propyl][(2-methoxypyridin-4-yl)methyl]amino}methyl)-4H-chromen-4-one] | 10 to 20 | > 2.5 | ≤ 10 |
| COc1cc(CN(CCCc2cncnc2)Cc2cn(C)c3ccccc3c2=O)ccn1 [Example 96, 3-({[(2-methoxypyridin-4-yl)methyl][3-(pyrimidin-5-yl)propyl]amino}methyl)-1-methyl-1,4-dihydroquinolin-4-one] | ≤ 10 | > 2.5 | ≤ 10 |
| COc1cc(CN(CCCc2cc[nH]c(=O)c2)Cc2coc3c(ccc4ccccc43)c2=O)ccn1 [Example 93, 4-(3-{[(2-methoxypyridin-4-yl)methyl]({4-oxo-4H-benzo[h]chromen-3-yl}methyl)amino}propyl)-1,2-dihydropyridin-2-one] | ≥ 20 | > 2.5 | ≥ 20 |
| Cc1oc2cc(N3CCN(C)CC3)c(F)cc2c(=O)c1CN(CCCc1cccnc1)Cc1ccncc1 [Example 65, 6-fluoro-2-methyl-7-(4-methylpiperazin-1-yl)-3-({[3-(pyridin-3-yl)propyl][(pyridin-4-yl)methyl]amino}methyl)-4-chromen-4-one] | ≤ 10 | > 2.5 | ≤ 10 |
| COc1cc(CN(CCCc2cccnc2)Cc2n[nH]c3ccccc3c2=O)ccn1 [Example 98, 3-({[(2-methoxypyridin-4-yl)methyl][3-(pyridin-3-yl)propyl]amino}methyl)-1,4-dihydrocinnolin-4-one] | 10 to 20 | > 2.5 | ≥ 20 |
| Cc1ccc2c(=O)c(CN(CCCn3cccc3)Cc3ccncc3)coc2c1C [Example 15, 7,8-dimethyl-3-{[(pyridin-4-ylmethyl)[3-(1H-pyrrol-1-yl)propyl]amino]methyl}-4H-chromen-4-one] | ≥ 20 | < 2.5 | ≥ 20 |
| COc1cc(CN(CCCn2ccnc2)Cc2coc3cc(N4CCN(C)CC4)ccc3c2=O)ccn1 [Example 34, 3-({[3-(1H-imidazol-1-yl)propyl][(2-methoxypyridin-4-yl)methyl]amino}methyl)-7-(4-methylpiperazin-1-yl)-4H-chromen-4-one] | ≥ 20 | < 2.5 | 10 to 20 |

The next lines start with the values.

| EC50 [1] [µM] | ΔTm at 50 µM (human STING) [°C] | EC50 [2] [µM] | SMILES |
| --- | --- | --- | --- |
| ≤ 10 | < 2.5 | ≤ 10 | O=c1c(CN(CCCn2ccnc2)Cc2ccncc2)coc2c3c(ccc12)CCCC3 [Example 20, 3-({[3-(1H-imidazol-1-yl)propyl](pyridin-4-ylmethyl)amino}methyl)-4H,7H,8H,9H,10-cyclohexa[h]chromen-4-one] |
| ≤ 10 | > 2.5 | 10 to 20 | O=c1c(CN(CCCn2ccnc2)Cc2ccncc2)coc2cc(Br)ccc12 [Example 10, 7-bromo-3-({[3-(1H-imidazol-1-yl)propyl](pyridin-4 ylmethyl)amino}methyl)-4H-chromen-4-one] |
| 10 to 20 | < 2.5 | ≥ 20 | O=c1c(CN(CCCCn2ccnc2)Cc2ccncc2)coc2ccccc12 [Example 1, 3-({[4-(1H-imidazol-1-yl)butyl](pyridin-4-ylmethyl)amino}methyl)-4H-chromen-4-one] |
| ≤ 10 | > 2.5 | ≤ 10 | Cc1oc2cc(Br)ccc2c(=O)c1CN(CCCn1ccnc1)Cc1ccncc1 [Example 48, 7-bromo-3-({[3-(1H-imidazol-1-yl)propyl][(pyridin-4-yl)methyl]amino}methyl)-2-methyl-4H-chromen-4-one] |
| ≤ 10 | > 2.5 | ≤ 10 | Cc1oc2c(ccc3ccccc32)c(=O)c1CN(CCCn1ccnc1)Cc1ccncc1 [Example 67, 3-({[3-(1H-imidazol-1-yl)propyl][(pyridin-4-yl)methyl]amino}methyl)-2-methyl-4H-benzo[h]chromen-4-one] |
| ≥ 20 | < 2.5 | ≥ 20 | COc1cc(CN(CCCn2ccnc2)Cc2coc3ccccc3c2=O)ccn1 [Example 18, 3-({[3-(1H-imidazol-1-yl)propyl][(2-methoxypyridin-4-yl)methyl]amino}methyl)-4H-chromen-4-one] |
| 10 to 20 | > 2.5 | ≥ 20 | COc1cc(CN(CCCn2ccnc2)Cc2coc3cc(O)ccc3c2=O)ccn1 [Example 27, 7-hydroxy-3-({[3-(1H-imidazol-1-yl)propyl][(2-methoxypyridin-4-yl)methyl]amino}methyl)-4H-chromen-4-one] |
| 10 to 20 | < 2.5 | ≥ 20 | O=c1c(CN(CCCn2ccnc2)Cc2ccncc2)coc2ccccc12 [Example 33, 3-({[3-(1H-imidazol-1-yl)propyl](pyridin-4-ylmethyl)amino}methyl)-4H-chromen-4-one] |
| ≥ 20 | < 2.5 | ≥ 20 | O=c1c(CN(CCCn2cccn2)Cc2ccncc2)coc2ccccc12 [Example 3, 3-({[3-(1H-pyrazol-1-yl)propyl](pyridin-4-ylmethyl)amino}methyl)-4H-chromen-4-one] |
| ≤ 10 | > 2.5 | ≤ 10 | O=c1c(CN(CCCn2ccnc2)Cc2ccncc2)coc2cc(OCc3ccccc3)ccc12 [Example 13, 7-(benzyloxy)-3-({[3-(1H-imidazol-1-yl)propyl](pyridin-4-ylmethyl)amino}methyl)-4H-chromen-4-one] |
| ≤ 10 | > 2.5 | ≤ 10 | O=c1c(CN(CCCc2cccnc2)Cc2ccncc2)coc2c1cc(F)c1ccccc12 [Example 54, 6-fluoro-3-({[3-(pyridin-3-yl)propyl][(pyridin-4-yl)methyl]amino}methyl)-4H benzo[h]chromen-4-one] |
| ≥ 20 | > 2.5 | ≥ 20 | O=c1c(CN(CCCn2ccnc2)Cc2ccncc2)coc2cc(-c3ccc(F)cc3)ccc12 [Example 23, 7-(4-fluorophenyl)-3-({[3-(1H-imidazol-1-yl)propyl](pyridin-4-ylmethyl)amino}methyl)-4H-chromen-4-one] |
| ≥ 20 | > 2.5 | ≥ 20 | Cn1cc(CN(CCCn2ccnc2)Cc2ccncc2)c(=O)c2ccccc21 [Example 31, 3-({[3-(1H-imidazol-1-yl)propyl][(pyridin-4-yl)methyl]amino}methyl)-1-methyl-1,4-dihydroquinolin-4-one] |
| 10 to 20 | < 2.5 | ≥ 20 | O=c1c(CN(CCCn2cccc2)Cc2ccncc2)coc2ccccc12 [Example 2, 3-({[(pyridin-4-yl)methyl][3-(1H-pyrrol-1-yl)propyl]amino}methyl)-4H-chromen-4-one] |
| ≥ 20 | < 2.5 | ≥ 20 | COc1ccc(-c2ccc3c(=O)c(CN(CCCn4ccnc4)Cc4ccncc4)coc3c2)cc1OC [Example 38, 7-(3,4-dimethoxyphenyl)-3-({[3-(1H-imidazol-1-yl)propyl][(pyridin-4-yl)methyl]amino}methyl)-4H-chromen-4-one] |
